In PubChem BioAssay (NCI):
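Exposure lasted 48 hours, with cells grown in 96-well plates and compounds tested at five concentrations. GI50 is the concentration that inhibits growth by half. TGI denotes the concentration required for complete inhibition of growth.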

Tests used:
Assay in all cases: inhibition of tumour cell growth, NCI panel, 48 h
[1] = test system: BT-549 breast
[2] = test system: HS 578T breast
[3] = test system: RXF 393 renal
[4] = test system: SK-MEL-5 melanoma
[5] = test system: HCT-116 colon
[6] = test system: UO-31 renal
[7] = test system: A498 renal
[8] = test system: CCRF-CEM leukemia
[9] = test system: RPMI-8226 leukemia
[10] = test system: SR leukemia
[11] = test system: 786-0 renal
[12] = test system: MALME-3M melanoma
[13] = test system: CAKI-1 renal
[14] = test system: U251 CNS
[15] = test system: SF-539 CNS
[16] = test system: NCI-H460 lung
[17] = test system: K-562 leukemia
[18] = test system: A549 NSCLC
[19] = test system: EKVX NSCLC
[20] = test system: SW-620 colon
[21] = test system: HOP-92 NSCLC
[22] = test system: MDA-MB-435
[23] = test system: OVCAR-4 ovarian
[24] = test system: HCC-2998 colon
[25] = test system: HOP-62 NSCLC
[26] = test system: ACHN renal
[27] = test system: NCI-H226 lung
[28] = test system: NCI-H522 lung
[29] = test system: HCT-15 colon
[30] = test system: OVCAR-3 ovarian
[31] = test system: UACC-257 melanoma
[32] = test system: NCI/ADR-RES ovarian
[33] = test system: SNB-19 CNS
[34] = test system: HT29 colon
[35] = test system: TK-10 renal
[36] = test system: LOX IMVI melanoma
[37] = test system: SF-268 CNS
[38] = test system: SN12C renal
[39] = test system: UACC-62 melanoma
[40] = test system: SK-MEL-28 melanoma
[41] = test system: MOLT-4 leukemia
[42] = test system: KM12 colon
[43] = test system: T-47D breast
[44] = test system: HL-60(TB) leukemia
[45] = test system: DU-145 prostate
[46] = test system: MCF7 breast
[47] = test system: NCI-H23 lung
[48] = test system: M14 melanoma
[49] = test system: COLO 205 colon
[50] = test system: OVCAR-8 ovarian
[51] = test system: SNB-75 CNS
[52] = test system: OVCAR-5 ovarian
[53] = test system: MDA-MB-231 breast
[54] = test system: SK-OV-3 ovarian

`COC(=O)c1ccc2[nH]c(O)c(C(=Nc3ccc(N(C)C(=O)CN4CCN(C)CC4)cc3)c3ccc(C)cc3)c2c1` gave a GI50 [1] of 1.13 µM, a TGI [1] of 2.45 µM and a GI50 [2] of 0.105 µM. It also gave a TGI [2] of 0.977 µM, a GI50 [3] of 0.221 µM and a TGI [3] of 1.05 µM. The GI50 [4] was 1.11 µM, the TGI [4] was 2.39 µM and the GI50 [5] was 0.124 µM. The TGI [5] was 1.27 µM, the GI50 [6] was 0.353 µM and the TGI [6] was 1.47 µM. It also gave a GI50 [7] of 0.458 µM, a TGI [7] of 1.96 µM and a GI50 [8] of 0.355 µM. For the same compound, the GI50 [9] was 0.494 µM, the TGI [9] was 2.47 µM and the GI50 [10] was 0.153 µM. It also gave a TGI [10] of 1.34 µM, a GI50 [11] of 0.336 µM and a TGI [11] of 1.78 µM. The GI50 [12] was 0.618 µM, the TGI [12] was 1.88 µM and the GI50 [13] was 0.132 µM. For the same compound, the TGI [13] was 1.48 µM, the GI50 [14] was 0.571 µM and the TGI [14] was 2 µM. The GI50 [15] was 0.307 µM and the TGI [15] was 1.18 µM.

In the case of `Cc1cnc(NC(=O)C(Cc2ccccc2)NC(=O)c2ccccc2)s1` (stereo not given), the GI50 [16] is reported as 3.54 µM, the TGI [16] is reported as 13.8 µM and the GI50 [17] is reported as 37.2 µM. The TGI [17] was greater than 100 µM, the GI50 [18] was 3.32 µM and the TGI [18] was 15.8 µM. For the same compound, the GI50 [19] was 19.5 µM, the TGI [19] was 47.6 µM and the GI50 [20] was 14 µM. It also gave a TGI [20] of 30.6 µM, a GI50 [1] of 29.1 µM and a TGI [1] greater than 100 µM. For the same compound, the GI50 [21] was 29.9 µM, the TGI [21] was greater than 100 µM and the GI50 [2] was 6.69 µM. It also gave a TGI [2] of 35.3 µM, a GI50 [22] of 3.02 µM and a TGI [22] of 15.6 µM. For the same compound, the GI50 [23] was 16.3 µM, the TGI [23] was greater than 100 µM and the GI50 [24] was 1.83 µM. The TGI [24] was 5 µM, the GI50 [25] was 10 µM and the TGI [25] was 28 µM. The GI50 [26] was 3.49 µM, the TGI [26] was 16.9 µM and the GI50 [27] was 2.04 µM. The TGI [27] was 7.05 µM, the GI50 [28] was 1.53 µM and the TGI [28] was 21.8 µM. The GI50 [29] was 2.63 µM, the TGI [29] was 8.9 µM and the GI50 [30] was 11.3 µM. It also gave a TGI [30] of 25.8 µM, a GI50 [31] of 1.14 µM and a TGI [31] of 3.16 µM. The GI50 [32] was 4.49 µM, the TGI [32] was 69.2 µM and the GI50 [4] was 1.69 µM. It also gave a TGI [4] of 3.85 µM, a GI50 [5] of 2.96 µM and a TGI [5] of 11.9 µM. For the same compound, the GI50 [33] was 19 µM, the TGI [33] was 48.6 µM and the GI50 [34] was 26 µM. For the same compound, the TGI [34] was greater than 100 µM, the GI50 [35] was 10.2 µM and the TGI [35] was 30.7 µM. The GI50 [36] was 6.25 µM, the TGI [36] was 19.3 µM and the GI50 [6] was 3.98 µM. The TGI [6] was 18.9 µM, the GI50 [37] was 23.2 µM and the TGI [37] was 54.7 µM. The GI50 [38] was 3.05 µM, the TGI [38] was 17.5 µM and the GI50 [7] was 31.1 µM. For the same compound, the TGI [7] was greater than 100 µM, the GI50 [39] was 1.45 µM and the TGI [39] was 3.7 µM. For the same compound, the GI50 [8] was 34.7 µM, the TGI [8] was greater than 100 µM and the GI50 [40] was 19.8 µM. It also gave a TGI [40] of 49.9 µM, a GI50 [9] of 2.7 µM and a TGI [9] of 9.04 µM. For the same compound, the GI50 [41] was 24.1 µM, the TGI [41] was 95.4 µM and the GI50 [42] was 3.82 µM. The TGI [42] was 14.7 µM, the GI50 [43] was 23.1 µM and the TGI [43] was 82.6 µM. The GI50 [44] was 21.2 µM, the TGI [44] was 51.5 µM and the GI50 [45] was 21.4 µM. The TGI [45] was 47 µM, the GI50 [46] was 1.55 µM and the TGI [46] was 5.12 µM. For the same compound, the GI50 [47] was 3.83 µM, the TGI [47] was 23.8 µM and the GI50 [48] was 1.75 µM. The TGI [48] was 3.95 µM, the GI50 [10] was 2.78 µM and the TGI [10] was 26.6 µM. For the same compound, the GI50 [11] was 15.1 µM, the TGI [11] was 76.2 µM and the GI50 [12] was 24.2 µM. The TGI [12] was greater than 100 µM, the GI50 [49] was 13.5 µM and the TGI [49] was 29.5 µM. For the same compound, the GI50 [50] was 2.38 µM, the TGI [50] was 9.16 µM and the GI50 [51] was 6.53 µM. It also gave a TGI [51] of 27.7 µM, a GI50 [52] of 25.3 µM and a TGI [52] of 63.7 µM. For the same compound, the GI50 [53] was 6.42 µM, the TGI [53] was 27.1 µM and the GI50 [13] was 33 µM. The TGI [13] was greater than 100 µM, the GI50 [54] was 22.9 µM and the TGI [54] was 71.6 µM. It also gave a GI50 [14] of 5.25 µM, a TGI [14] of 19.3 µM and a GI50 [15] of 14.2 µM. The TGI [15] was 31.1 µM.
